Here are results for 21 molecules from PubChem BioAssay (NCI).

Among the test systems are HCC-2998 colon; IGROV1 ovarian; CAKI-1 renal; RXF 393 renal; NCI-H460 lung; ACHN renal; UACC-257 melanoma; SNB-75 CNS; COLO 205 colon; SF-268 CNS.
Common to all, as to test: NCI-60 cell line screen, 48 h

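These data come from cells grown in 96-well plates and exposed to compound for 48 hours at five concentrations. TGI: total growth inhibition.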 Where a SMILES comes first, the peptide text is derived from it. The star is where a group is joined. Boc = CC(C)(C)OC(=O)*; OBn = c1ccc(CO*)cc1; Bn = c1ccc(C*)cc1

For `N#Cc1nn(-c2ccc(Cl)cc2)c(N)c2c(=N)n3nc(-c4ccccc4)cc3nc12`, the TGI with HCC-2998 colon was 0.0134 µM; in the test on IGROV1 ovarian it was more than 32 µM; in the test with CAKI-1 renal it was more than 100 µM; in the test on RXF 393 renal it was 76.8 µM; in the test on NCI-H460 lung it was more than 92.3 µM; in the test on ACHN renal, more than 100 µM. The TGI with UACC-257 melanoma is more than 100 µM; in the test on SNB-75 CNS, more than 68.4 µM.

Take `C[C@H](NC(=O)OC1C2C=CC(O)C1CC2)c1ccccc1` (stereo partly drawn): the TGI in the test on HCC-2998 colon, with IGROV1 ovarian, in the test on COLO 205 colon, in the test on CAKI-1 renal, in the test on RXF 393 renal and with NCI-H460 lung was more than 100 µM throughout. The TGI with SF-268 CNS, with ACHN renal, in the test with UACC-257 melanoma and in the test with SNB-75 CNS was more than 100 µM throughout.

As to `CCCCc1cc2c(cc1O)CCC1C2CC[C@@]2(C)C1CC[C@@H]2O` (stereo partly drawn), the TGI with HCC-2998 colon is 50.9 µM; with IGROV1 ovarian it was 49.9 µM; in the test on COLO 205 colon it was 49.5 µM; in the test on CAKI-1 renal it was 52.6 µM; in the test with RXF 393 renal it was 22.2 µM; with NCI-H460 lung, 63.5 µM. Also, the TGI in the test on SF-268 CNS came to 89 µM; in the test with ACHN renal, 29.7 µM; in the test with UACC-257 melanoma, 35.9 µM; in the test with SNB-75 CNS, 31.7 µM.

Take `Cc1c(Cl)cccc1NC(=O)C(=O)C1C(=O)NC(=O)NC1=O`: the TGI in the test on HCC-2998 colon, in the test with IGROV1 ovarian, in the test on COLO 205 colon, in the test with CAKI-1 renal, in the test with RXF 393 renal and in the test with NCI-H460 lung was more than 100 µM throughout. The TGI in the test on SF-268 CNS, with ACHN renal, with UACC-257 melanoma and in the test on SNB-75 CNS was more than 100 µM each time.

With `CCOC(=O)[C@H]1Nc2ccc(O)cc2C2c3ccccc3CC21` (stereo partly drawn), the TGI in the test on HCC-2998 colon is more than 100 µM; in the test with IGROV1 ovarian, more than 100 µM; with COLO 205 colon, more than 100 µM; in the test on CAKI-1 renal it was more than 100 µM; in the test with RXF 393 renal, 91.9 µM; in the test with NCI-H460 lung, more than 100 µM. The TGI in the test with SF-268 CNS, in the test with ACHN renal, in the test on UACC-257 melanoma and in the test with SNB-75 CNS was more than 100 µM throughout.

As for `OC(Cn1cncn1)(Cn1cncn1)c1ccc(Cl)cc1Cl`, the TGI with IGROV1 ovarian, with COLO 205 colon, with CAKI-1 renal, in the test with RXF 393 renal, with NCI-H460 lung and in the test with SF-268 CNS was more than 100 µM each time. For the same molecule, the TGI in the test on ACHN renal, in the test on UACC-257 melanoma and with SNB-75 CNS was more than 100 µM in each case.

Turning to `CC(=O)OCCOCNC(=S)N/N=C(\C)c1ccco1`, the TGI with HCC-2998 colon, with IGROV1 ovarian, in the test with COLO 205 colon, in the test with RXF 393 renal, in the test on NCI-H460 lung and in the test on SF-268 CNS was more than 100 µM throughout. For the same molecule, the TGI in the test on ACHN renal, in the test with UACC-257 melanoma and in the test on SNB-75 CNS was more than 100 µM throughout.

For `C[Si](C)(C)C#C[I+]c1ccccc1`, the TGI in the test on HCC-2998 colon is more than 100 µM; with IGROV1 ovarian, more than 100 µM; with COLO 205 colon it was 32.9 µM; with CAKI-1 renal, more than 100 µM; in the test on RXF 393 renal, more than 100 µM; in the test with NCI-H460 lung, more than 100 µM. The TGI in the test on SF-268 CNS, with ACHN renal, with UACC-257 melanoma and in the test with SNB-75 CNS was more than 100 µM each time.

For the molecule `CCOC(=O)Cc1csc(/N=C\c2c(O)c3ccccc3oc2=O)n1`, the TGI with IGROV1 ovarian, with COLO 205 colon, in the test with CAKI-1 renal, in the test on RXF 393 renal, in the test on NCI-H460 lung and in the test with SF-268 CNS was more than 100 µM in each case. The TGI is more than 100 µM in the test with ACHN renal, 74.5 µM with UACC-257 melanoma and 56.7 µM in the test on SNB-75 CNS.

On to `CCCCCCCCCCCCCC(=O)OCC1OC(OC)C(NC(=O)N(CCCl)N=O)C(O)C1O` (stereo not drawn), for which the TGI with HCC-2998 colon was 65.6 µM; with IGROV1 ovarian, more than 100 µM; with COLO 205 colon, 98.5 µM; in the test on CAKI-1 renal it was more than 100 µM; with RXF 393 renal it was 32.1 µM; with NCI-H460 lung it was 25.1 µM. The TGI in the test with SF-268 CNS was found to be 40.1 µM; in the test with ACHN renal, 49.1 µM; in the test with UACC-257 melanoma it was 30.2 µM; in the test on SNB-75 CNS, 73.5 µM.

For the molecule `Cn1cc(C(=O)C2CCCCC2)ccc1=O`, the TGI in the test on HCC-2998 colon, in the test with IGROV1 ovarian, in the test with COLO 205 colon, with CAKI-1 renal, in the test on RXF 393 renal and with NCI-H460 lung was more than 100 µM in each case. Besides, the TGI in the test on SF-268 CNS, in the test on ACHN renal and in the test on SNB-75 CNS was more than 100 µM in each case.

With `CCOC(=O)/C(O)=C(\C=N\C(=S)Nc1ccc(Cl)c(Cl)c1)C(=O)OCC`, the TGI in the test on IGROV1 ovarian, in the test with COLO 205 colon, in the test with CAKI-1 renal, with RXF 393 renal, in the test on NCI-H460 lung and in the test with SF-268 CNS was more than 100 µM throughout. For the same molecule, the TGI in the test on ACHN renal, in the test with UACC-257 melanoma and with SNB-75 CNS was more than 100 µM in each case.

On to `COc1ccc(NS(=O)C2CCCCC2)cc1` (stereo not drawn), for which the TGI with HCC-2998 colon, in the test on IGROV1 ovarian, with COLO 205 colon, with CAKI-1 renal, in the test on RXF 393 renal and with NCI-H460 lung was more than 100 µM throughout. The TGI in the test on SF-268 CNS, in the test with ACHN renal, in the test on UACC-257 melanoma and in the test with SNB-75 CNS was more than 100 µM each time.

`CCCCc1ccc(N2C(=O)c3cc(C)cnc3S2(=O)=O)cc1`: the TGI with HCC-2998 colon, in the test with IGROV1 ovarian, in the test on COLO 205 colon, in the test on RXF 393 renal, in the test with NCI-H460 lung and with SF-268 CNS was more than 100 µM throughout. Also, the TGI in the test on ACHN renal and in the test with SNB-75 CNS was more than 100 µM each time.

Take `CC(C)CC(NC(=O)C(Cc1ccccc1)NC(=O)C(COCc1ccccc1)NC(=O)OC(C)(C)C)C(=O)OCc1ccccc1` (stereo not drawn) (Boc-Ser(Bn)-Phe-Leu-OBn; configuration not given here): the TGI is 27.8 µM with HCC-2998 colon; 31.8 µM in the test on IGROV1 ovarian; 43.9 µM with COLO 205 colon; more than 100 µM in the test on CAKI-1 renal; 26.4 µM with NCI-H460 lung; 43 µM in the test with SF-268 CNS. The TGI in the test with ACHN renal was 33.1 µM; with UACC-257 melanoma, more than 100 µM; in the test on SNB-75 CNS, 57.6 µM.

In the case of `Cc1cccc(Nc2cn(CCOc3ccccc3)c(=O)[nH]c2=O)c1`, the TGI with HCC-2998 colon is 91.6 µM; in the test on IGROV1 ovarian, 54.9 µM; with COLO 205 colon, 36.8 µM; in the test with CAKI-1 renal, more than 100 µM; with RXF 393 renal, more than 100 µM; with NCI-H460 lung, more than 100 µM. The TGI with SF-268 CNS, in the test with ACHN renal and with UACC-257 melanoma was more than 100 µM throughout.

As to `O=Cc1cc(O)c(O)c(O)c1-c1c(C=O)cc(O)c(O)c1O`, the TGI with HCC-2998 colon, in the test with IGROV1 ovarian, in the test on COLO 205 colon, in the test with CAKI-1 renal, with NCI-H460 lung and with SF-268 CNS was more than 100 µM in each case. The TGI with ACHN renal, with UACC-257 melanoma and in the test on SNB-75 CNS was more than 100 µM throughout.

Turning to `COc1ccc2cc(C(=O)NCCc3ccccc3)ccc2c1OC`, the TGI with HCC-2998 colon was more than 100 µM; in the test on IGROV1 ovarian, more than 100 µM; in the test on COLO 205 colon, more than 100 µM; in the test with CAKI-1 renal it was more than 100 µM; in the test with RXF 393 renal, 70.7 µM; in the test with NCI-H460 lung, more than 100 µM. The TGI in the test on SF-268 CNS, in the test on ACHN renal and in the test on UACC-257 melanoma was more than 100 µM each time.

Take `CC(=O)OC(C)(C)C1CCC(C)(C(O)COc2ccc(CCNC(=O)c3ccccc3)cc2)O1` (stereo not drawn): the TGI in the test on IGROV1 ovarian, with COLO 205 colon, with CAKI-1 renal, in the test on RXF 393 renal, in the test on NCI-H460 lung and in the test with SF-268 CNS was more than 100 µM in each case. Also, the TGI in the test on ACHN renal, with UACC-257 melanoma and in the test with SNB-75 CNS was more than 100 µM throughout.

Consider `COC(=O)CSc1[nH]c2nc(C)nc(Nc3ccccc3)c2c1C#N`, for which the TGI in the test with HCC-2998 colon, in the test on IGROV1 ovarian, in the test with COLO 205 colon, in the test with CAKI-1 renal, with RXF 393 renal and with SF-268 CNS was more than 10 µM each time. For the same molecule, the TGI in the test with UACC-257 melanoma and in the test with SNB-75 CNS was more than 10 µM in each case.

With `C=C1C(=O)O[C@H]2C1C[C@@H](O)[C@@]1(C)OC1CC[C@@]1(C)O[C@H]21` (stereo partly drawn), the TGI in the test on HCC-2998 colon was 30.7 µM; in the test with COLO 205 colon it was 25.8 µM; in the test on CAKI-1 renal, 34.1 µM; in the test with RXF 393 renal it was 34.4 µM; in the test on NCI-H460 lung it was more than 100 µM; in the test on SF-268 CNS it was more than 100 µM. The results for the TGI in the test on ACHN renal, in the test on UACC-257 melanoma and in the test with SNB-75 CNS were 27 µM, 42.3 µM and more than 100 µM, respectively.
